Consider 34 compounds from a melting point compilation (Tetko et al.; mined from patent text by program, amines drawn as free bases though some values may be those of a salt).

As a reminder, the melting point is the temperature of the solid-liquid transition.

Each structure is given as a SMILES string.

Compound `CN(C)Cc1ccc(NC(=O)Nc2ccc(Oc3cc(Cl)ncn3)cc2)cc1C(F)(F)F` showed a melting point of 98 to 105 °C. Regarding `CC1(c2ccccc2)OC(=O)C(Cl)(Cl)C(C(Cl)(Cl)Cl)N1OC(=O)Nc1ccccc1` (centres undefined), the melting point is 154 to 157 °C.

On to `COc1ccc2cc([C@H](C)C(=O)NOCC(=O)O)ccc2c1`, for which the melting point lay in the range of 152 to 153 °C. Consider `Cc1ccc2c(c1)CCN2c1ccccc1C#N`, for which the melting point was in the range of 59 to 60 °C. Under `S=C(SCc1ccccc1)N1CC2CCC(CC2)C1` stands 98 to 99 °C; under `CC1c2cc(C(C)(C)C)cc(C(C)(C)C)c2O[PH](=O)Oc2c1cc(C(C)(C)C)cc2C(C)(C)C` (centres undefined), 209 °C; under `CCNC(=O)N1Cc2c(-c3ccc(F)cc3)ncn2-c2ccccc21`, 196 to 200 °C.

`O=C(NCCBr)Oc1ccccc1` displayed a melting point of 57 to 60 °C. The value for `Oc1ccc(C2(c3ccc(O)cc3)CCC(c3ccccc3)CC2)cc1` was 262 to 263 °C; that for `CCOCC(=O)Nc1nc[nH]c1-c1n[nH]c(-c2ccc(-c3ccccc3)cc2)n1` was 280 °C. The compound `Cc1nc(-c2ccc(-c3cccs3)cc2)c(-c2ccc(S(C)(=O)=O)cc2)o1` returned a melting point of 183 to 185 °C.

Turning to `CCOC(=O)CN1C(=O)C(NC(=O)Nc2ccc(Cl)cc2)N=C(c2ccccc2F)c2ccccc21` (centres undefined), the melting point lay within 253 to 254 °C. In turn, `CC1=C(CCO)c2cc(F)ccc2/C1=C\c1ccc(S(C)(=O)=O)cc1` gave a melting point of 118 °C. Under `Fc1cccc(-c2ccc3nncn3n2)c1` stands 159 to 161 °C; under `CC(=NOCCOc1ccc(C[C@H](Oc2ccc(C(C)(C)C)cc2)C(=O)O)cc1)c1ccc(-c2ccccc2)cc1`, 141 to 143 °C; under `CC(=O)Cc1nc(/C=C/c2cccc(Cl)c2F)no1`, 75 to 77 °C. With `CS(=O)(=O)c1ccc(-c2cnn(Cc3ccccc3)c(=O)c2Cl)cc1`, the melting point is 166 to 167 °C. For `O=C(O)/C=C1\Cc2ccccc2C1=O`, the melting point was in the range of 201 to 203 °C. Consider `Cc1c(O)c(=O)ccn1Cc1ccccc1`, for which the melting point was in the range of 205 to 207 °C.

Compound `Cc1cccc(C(=O)O)c1Nc1ccccc1C(=O)O` displayed a melting point of 258 to 259 °C. With `O=C1c2ccccc2C(=O)c2sc(-c3ccccc3)nc21`, the melting point turned out to be 249 °C. The value for `CC(O)c1cccc(-c2cc3c(=O)n(NS(C)(=O)=O)c(=O)[nH]c3cc2C(F)(F)F)c1` (centres undefined) was 165 to 169 °C; that for `CC(C)(C)OC(=O)n1cccc1-c1ccc2c(c1)C1(CCCC1)C(=O)N2` was 179 to 180 °C. `O=C(NCc1ccc(C(=O)C(F)(F)F)cc1)c1cccnc1Oc1cccnc1` registered a melting point of 134 to 136 °C. Consider `O=C(NCc1cccc2nc(N[C@@H]3CCc4ccccc43)ccc12)c1ccc(F)cc1`, for which the melting point worked out at 145 °C. The value for `CSc1nccc(-c2c3cccnc3n3c(NC(C)=O)nccc23)n1` was 160 to 162 °C; that for `C=CCCCCCCCCOC(=O)C=Cc1ccccc1O` was 58 °C; that for `CC12CCC(=O)C([N+](=O)[O-])=C1CCC1C2CCC2(C)C(O)CCC12` (centres undefined) was 158 to 160 °C. The compound `CN1C(=O)[C@H](NC(=O)CCc2cccc(C#N)c2)N=C(c2ccccc2)c2ccccc21` showed a melting point of 110 to 112 °C.

`COc1ccc(N2CCN(C3CCN(CC(O)COc4cccc5[nH]c(C)cc45)CC3)C2=O)cc1` (centres undefined) registered a melting point of 155 to 157 °C.

Regarding `CC(C)CNC(=O)c1ccc(C2(F)CC2c2ccc(Br)c(Br)c2)cc1` (centres undefined), the melting point was determined as 132 °C.

For the compound `O=Cc1ccc(-c2nnn[nH]2)cc1`, the melting point is 180 to 182 °C. `CCOc1ccc2c(c1)n(C1CCCCC1)c(=O)n2S(=O)(=O)c1ccc(C(=O)NC(C)(C)C)cc1OC` gave a melting point of 252 °C. On to `COc1cc(C2C3=C(COC3=O)Nc3ccc4nn[nH]c4c32)cc(OC)c1OC` (centres undefined), for which the melting point was in the range of 324 to 325 °C.
